Measured values taken from patent publication US8497380B2, “Substituted acetophenones useful as PDE4 inhibitors” (Leo Pharma A/S, priority 2006, dated 2013).

system: Human peripheral blood mononuclear cells (PBMC); test: TNFalfa-Release; type: cell-based; details: inhibition of TNF-a secretion, PBMC pre-incubated 30 minutes, stimulated 18 hours with lipopolysaccharide
Procedure, shortened: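 Buffy-coat PBMC at 5×105 c/ml in RPMI1640 with 2% FCS were pre-incubated 30 min with compound, then stimulated 18 h with LPS 1 mg/ml. Supernatant TNF-a measured by enzyme immunoassay; pIC50 from inhibition curves relative to LPS-stimulated and unstimulated wells.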

Compound	IC50 [µM]
COc1ccc(C(=O)Cc2c(Cl)cncc2Cl)c(OCC(=O)N[C@H](C)c2ccccc2)c1OC [Compound 221, (R)-2-{6-[2-(3,5-Dichloro-pyridin-4-yl)-acetyl]-2,3-dimethoxy-phenoxy}-N-(1-phenyl-ethyl)-acetamide]	< 1
CC#CCOc1c(C(=O)Cc2c(Cl)cncc2Cl)ccc(OC)c1OC [Compound 110, 1-(2-But-2-ynyloxy-3,4-dimethoxy-phenyl)-2-(3,5-dichloro-pyridin-4-yl)-ethanone]	< 1
COc1ccc(C(=O)Cc2c(Cl)cncc2Cl)c(OCc2c(F)cccc2C(F)(F)F)c1OC [Compound 170, 2-(3,5-Dichloro-pyridin-4-yl)-1-[2-(2-fluoro-6-trifluoromethyl-benzyloxy)-3,4-dimethoxy-phenyl]-ethanone]	< 1
COc1cccc(CNC(=O)COc2c(C(=O)Cc3c(Cl)cncc3Cl)ccc(OC)c2OC)c1 [Compound 216, 2-{6-[2-(3,5-Dichloro-pyridin-4-yl)-acetyl]-2,3-dimethoxy-phenoxy}-N-(3-methoxy-benzyl)-acetamide]	< 1
COc1ccc(C(=O)Cc2c(Cl)cncc2Cl)c(OCC(=O)NCCOc2ccccc2)c1OC [Compound 231, 2-{6-[2-(3,5-Dichloro-pyridin-4-yl)-acetyl]-2,3-dimethoxy-phenoxy}-N-(2-phenoxy-ethyl)-acetamide]	< 1
COc1ccc(C(=O)Cc2c(Cl)cncc2Cl)c(OCCO)c1OC [Compound 155, 2-(3,5-Dichloro-pyridin-4-yl)-1-[2-(2-hydroxy-ethoxy)-3,4-dimethoxy-phenyl]-ethanone]	< 1
COc1ccc(C(=O)Cc2c(Cl)cncc2Cl)c(OCC(=O)NCCCN2CCCC2=O)c1OC [Compound 255, 2-{6-[2-(3,5-Dichloro-pyridin-4-yl)-acetyl]-2,3-dimethoxy-phenoxy}-N-[3-(2-oxo-pyrrolidin-1-yl)-propyl]-acetamide]	< 1
C=CCOc1c(OC)ccc(C(=O)Cc2c(Cl)cncc2Cl)c1OCCc1ccccc1 [Compound 268, 1-(3-Allyloxy-4-methoxy-2-phenethyloxy-phenyl)-2-(3,5-dichloro-pyridin-4-yl)-ethanone]	< 1
COc1ccc(C(=O)Cc2c(Cl)cncc2Cl)c(OCc2cccc(Cl)c2)c1OC [Compound 144, 1-[2-(3-Chloro-benzyloxy)-3,4-dimethoxy-phenyl]-2-(3,5-dichloro-pyridin-4-yl)-ethanone]	< 1
COc1ccc(C(=O)Cc2c(Cl)cncc2Cl)c(OCCCOCc2ccccc2)c1OC [Compound 183, 1-[2-(3-Benzyloxy-propoxy)-3,4-dimethoxy-phenyl]-2-(3,5-dichloro-pyridin-4-yl)-ethanone]	< 1
COc1ccc(C(=O)Cc2c(Cl)cncc2Cl)c(OCc2cccc(C(F)(F)F)c2)c1OC [Compound 162, 2-(3,5-Dichloro-pyridin-4-yl)-1-[3,4-dimethoxy-2-(3-trifluoromethyl-benzyloxy)-phenyl]-ethanone]	< 1
COc1ccc(C(=O)Cc2c(Cl)cncc2Cl)c(OCC(=O)NCC2CCCCC2)c1OC [Compound 219, N-Cyclohexylmethyl-2-{6-[2-(3,5-dichloro-pyridin-4-yl)-acetyl]-2,3-dimethoxy-phenoxy}-acetamide]	< 1
COc1ccc(C(=O)Cc2c(Cl)cncc2Cl)c(OCc2ccccc2OC(F)F)c1OC [Compound 168, 2-(3,5-Dichloro-pyridin-4-yl)-1-[2-(2-difluoromethoxy-benzyloxy)-3,4-dimethoxy-phenyl]-ethanone]	< 1
COc1ccccc1CCOc1c(C(=O)Cc2c(Cl)cncc2Cl)ccc(OC)c1OC [Compound 128, 2-(3,5-Dichloro-pyridin-4-yl)-1-{3,4-dimethoxy-2-[2-(2-methoxy-phenyl)-ethoxy]-phenyl}-ethanone]	< 1
COc1ccc(C(=O)Cc2c(Cl)cncc2Cl)c(OCC(=O)c2ccc3ccccc3c2)c1OC [Compound 157, 2-(3,5-Dichloro-pyridin-4-yl)-1-[3,4-dimethoxy-2-(2-naphthalen-2-yl-2-oxo-ethoxy)-phenyl]-ethanone]	< 1
COc1ccc(C(=O)Cc2c(Cl)cncc2Cl)c(OCc2ccc(C)c(F)c2F)c1OC [Compound 171, 2-(3,5-Dichloro-pyridin-4-yl)-1-(2-(2,3-difluoro-4-methyl-benzyloxy)-3,4-dimethoxy-phenyl)-ethanone]	< 1
COc1ccc(C(=O)Cc2c(Cl)cncc2Cl)c(OCc2ccccc2Cl)c1OC [Compound 176, 1-[2-(2-Chloro-benzyloxy)-3,4-dimethoxy-phenyl]-2-(3,5-dichloro-pyridin-4-yl)-ethanone]	< 1
COc1ccc(C(=O)Cc2c(Cl)cncc2Cl)c(OCC(=O)NCc2cccs2)c1OC [Compound 254, 2-{6-[2-(3,5-Dichloro-pyridin-4-yl)-acetyl]-2,3-dimethoxy-phenoxy}-N-thiophen-2-ylmethyl-acetamide]	< 1
CCCCOc1c(C(=O)Cc2c(Cl)cncc2Cl)ccc(OC)c1OC [Compound 140, 1-(2-Butoxy-3,4-dimethoxy-phenyl)-2-(3,5-dichloro-pyridin-4-yl)-ethanone]	< 1

Compound	IC50 [µM]
COc1ccc(C(=O)Cc2c(Cl)cncc2Cl)c(OCCc2ccccc2)c1OC [Compound 112, 2-(3,5-Dichloro-pyridin-4-yl)-1-(3,4-dimethoxy-2-phenethyloxy-phenyl)-ethanone]	< 1
COc1ccc(C(=O)Cc2c(Cl)cncc2Cl)c(OCC(=O)NCc2ccccn2)c1OC [Compound 229, 2-{6-[2-(3,5-Dichloro-pyridin-4-yl)-acetyl]-2,3-dimethoxy-phenoxy}-N-pyridin-2-ylmethyl-acetamide]	< 1
COc1ccc(C(=O)Cc2c(Cl)cncc2Cl)c(OCC(=O)NCc2ccccc2C)c1OC [Compound 237, 2-{6-[2-(3,5-Dichloro-pyridin-4-yl)-acetyl]-2,3-dimethoxy-phenoxy}-N-(2-methyl-benzyl)-acetamide]	< 1
COc1ccc(C(=O)Cc2c(Cl)cncc2Cl)c(OCc2ccccc2F)c1OC [Compound 161, 2-(3,5-Dichloro-pyridin-4-yl)-1-[2-(2-fluoro-benzyloxy)-3,4-dimethoxy-phenyl]-ethanone]	< 1
CCCNC(=O)COc1c(C(=O)Cc2c(Cl)cccc2Cl)ccc(OC)c1OC [Compound 288, 2-{6-[2-(2,6-Dichloro-phenyl)-acetyl]-2,3-dimethoxy-phenoxy}-N-propyl-acetamide]	< 1
C=CCCCOc1c(C(=O)Cc2c(Cl)cncc2Cl)ccc(OC)c1OC [Compound 138, 2-(3,5-Dichloro-pyridin-4-yl)-1-(3,4-dimethoxy-2-pent-4-enyloxy-phenyl)-ethanone]	< 1
CCCCNC(=O)COc1c(C(=O)Cc2c(Cl)cncc2Cl)ccc(OC)c1OC [Compound 210, N-Butyl-2-{6-[2-(3,5-dichloro-pyridin-4-yl)-acetyl]-2,3-dimethoxy-phenoxy}-acetamide]	< 1
CCCNC(=O)COc1c(C(=O)Cc2ccncc2Br)ccc(OC)c1OC [Compound 292, 2-{6-[2-(3-Bromo-pyridin-4-yl)-acetyl]-2,3-dimethoxy-phenoxy}-N-propyl-acetamide]	< 1
COc1ccc(C(=O)Cc2c(Cl)cncc2Cl)c(OCC(=O)NCCCO)c1OC [Compound 222, 2-{6-[2-(3,5-Dichloro-pyridin-4-yl)-acetyl]-2,3-dimethoxy-phenoxy}-N-(3-hydroxy-propyl)-acetamide]	< 1
COc1ccc(C(=O)Cc2c(Cl)cncc2Cl)c(OCC(=O)NCCNC(C)=O)c1OC [Compound 251, N-(2-Acetylamino-ethyl)-2-{6-[2-(3,5-dichloro-pyridin-4-yl)-acetyl]-2,3-dimethoxy-phenoxy}-acetamide]	< 1
CCOc1c(OC)ccc(C(=O)Cc2c(Cl)cncc2Cl)c1OCC [Compound 104, 2-(3,5-Dichloro-pyridin-4-yl)-1-(2,3-diethoxy-4-methoxy-phenyl)-ethanone]	< 1
CCCNC(=O)COc1c(C(=O)Cc2c(Cl)cncc2Cl)ccc(OC)c1OC [Compound 208, 2-{6-[2-(3,5-Dichloro-pyridin-4-yl)-acetyl]-2,3-dimethoxy-phenoxy}-N-propyl-acetamide]	< 1
COc1ccc(C(=O)Cc2c(Cl)cncc2Cl)c(OCC(=O)N[C@@H](C)c2ccccc2)c1OC [Compound 226, (S)-2-(6-[2-(3,5-Dichloro-pyridin-4-yl)-acetyl]-2,3-dimethoxy-phenoxy)-N-(1-phenyl-ethyl)-acetamide]	< 1
COc1ccc(C(=O)Cc2c(Cl)cncc2Cl)c(OCC=C(C)C)c1OC [Compound 111, 2-(3,5-Dichloro-pyridin-4-yl)-1-[3,4-dimethoxy-2-(3-methyl-but-2-enyloxy)-phenyl]-ethanone]	< 1
COc1cccc(CCOc2c(C(=O)Cc3c(Cl)cncc3Cl)ccc(OC)c2OC)c1 [Compound 125, 2-(3,5-Dichloro-pyridin-4-yl)-1-{3,4-dimethoxy-2-[2-(3-methoxy-phenyl)-ethoxy]-phenyl}-ethanone]	< 1
COc1ccc(C(=O)Cc2c(Cl)cncc2Cl)c(OCc2ccc(C#N)cc2)c1OC [Compound 148, 4-{6-[2-(3,5-Dichloro-pyridin-4-yl)-acetyl]-2,3-dimethoxy-phenoxymethyl}-benzonitrile]	< 1
COc1ccc(C(=O)Cc2c(Cl)cncc2Cl)c(OCC2CCCCC2)c1OC [Compound 151, 1-(2-Cyclohexylmethoxy-3,4-dimethoxy-phenyl)-2-(3,5-dichloro-pyridin-4-yl)-ethanone]	< 1
COc1ccc(C(=O)Cc2c(Cl)cncc2Cl)c(OCc2ccc(C)cc2)c1OC [Compound 143, 2-(3,5-Dichloro-pyridin-4-yl)-1-[3,4-dimethoxy-2-(4-methyl-benzyloxy)-phenyl]-ethanone]	< 1
COc1ccc(C(=O)Cc2c(Cl)cncc2Cl)c(OCC(=O)NCc2ccc(C)cc2)c1OC [Compound 240, 2-{6-[2-(3,5-Dichloro-pyridin-4-yl)-acetyl]-2,3-dimethoxy-phenoxy}-N-(4-methyl-benzyl)-acetamide]	< 1
